Source: ChEMBL document CHEMBL1909046, “DrugMatrix in vitro pharmacology data”

Experiments:
[1] = DRUGMATRIX: Glutamate, Kainate radioligand binding (ligand: [3H] Kainic acid); type: cell membranes, Rattus norvegicus, Wistar, Brain, Membrane; conditions: Not Active = under 50% inhibition at 10 µM
Histamine H2 receptor = Histamine H2 receptor (Homo sapiens, UniProt P25021); type: cell membranes, CHO-K1, Membrane; conditions: cho-k1; note: in other assays of this panel Not Active means under 50% inhibition at 10 µM
Chain of Histamine H2 receptor (P25021 whole entry): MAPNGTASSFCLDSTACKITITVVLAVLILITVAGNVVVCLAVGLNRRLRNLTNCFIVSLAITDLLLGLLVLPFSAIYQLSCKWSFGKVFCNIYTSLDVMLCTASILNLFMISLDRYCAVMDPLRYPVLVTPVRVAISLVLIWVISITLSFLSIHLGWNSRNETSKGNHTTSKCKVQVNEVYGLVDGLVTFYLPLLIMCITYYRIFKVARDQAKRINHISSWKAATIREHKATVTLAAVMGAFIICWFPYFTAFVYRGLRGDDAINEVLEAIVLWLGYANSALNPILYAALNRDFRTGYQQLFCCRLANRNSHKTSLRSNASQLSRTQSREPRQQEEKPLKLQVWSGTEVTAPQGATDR

[2] = molecular target: Mitogen-activated protein kinase 14 (Homo sapiens, UniProt Q16539); design: species or system Escherichia coli;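 note: inhibition of p38alpha enzyme activity in a biochemical kinase assay, with myelin basic protein serving as substrate; in other assays of this panel Not Active means under 50% inhibition at 10 µM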
Chain of Mitogen-activated protein kinase 14 (Q16539 whole entry): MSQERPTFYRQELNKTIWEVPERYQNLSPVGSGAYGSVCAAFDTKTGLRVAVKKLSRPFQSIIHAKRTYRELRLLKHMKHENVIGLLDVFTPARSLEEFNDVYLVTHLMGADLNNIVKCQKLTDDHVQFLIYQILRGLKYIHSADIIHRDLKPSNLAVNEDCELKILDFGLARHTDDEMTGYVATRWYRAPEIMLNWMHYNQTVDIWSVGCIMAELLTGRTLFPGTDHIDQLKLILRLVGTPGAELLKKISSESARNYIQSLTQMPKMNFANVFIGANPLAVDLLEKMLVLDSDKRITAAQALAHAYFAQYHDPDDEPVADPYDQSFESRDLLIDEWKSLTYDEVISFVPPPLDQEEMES

[3] = molecular target: Receptor tyrosine-protein kinase erbB-2 (Homo sapiens, UniProt P04626); experiment: biochemical; type: cell-based, Insect cells; conditions: insect cells;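 note: inhibition of HER2 kinase enzyme activity, measured with Poly(Glu:Tyr) as the phosphorylation substrate; in other assays of this panel Not Active means under 50% inhibition at 10 µM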
Androgen receptor = molecular target: T1, Androgen receptor (Rattus norvegicus, UniProt P15207); note: in other assays of this panel Not Active means under 50% inhibition at 10 µM
T1 sequence (P15207 whole entry): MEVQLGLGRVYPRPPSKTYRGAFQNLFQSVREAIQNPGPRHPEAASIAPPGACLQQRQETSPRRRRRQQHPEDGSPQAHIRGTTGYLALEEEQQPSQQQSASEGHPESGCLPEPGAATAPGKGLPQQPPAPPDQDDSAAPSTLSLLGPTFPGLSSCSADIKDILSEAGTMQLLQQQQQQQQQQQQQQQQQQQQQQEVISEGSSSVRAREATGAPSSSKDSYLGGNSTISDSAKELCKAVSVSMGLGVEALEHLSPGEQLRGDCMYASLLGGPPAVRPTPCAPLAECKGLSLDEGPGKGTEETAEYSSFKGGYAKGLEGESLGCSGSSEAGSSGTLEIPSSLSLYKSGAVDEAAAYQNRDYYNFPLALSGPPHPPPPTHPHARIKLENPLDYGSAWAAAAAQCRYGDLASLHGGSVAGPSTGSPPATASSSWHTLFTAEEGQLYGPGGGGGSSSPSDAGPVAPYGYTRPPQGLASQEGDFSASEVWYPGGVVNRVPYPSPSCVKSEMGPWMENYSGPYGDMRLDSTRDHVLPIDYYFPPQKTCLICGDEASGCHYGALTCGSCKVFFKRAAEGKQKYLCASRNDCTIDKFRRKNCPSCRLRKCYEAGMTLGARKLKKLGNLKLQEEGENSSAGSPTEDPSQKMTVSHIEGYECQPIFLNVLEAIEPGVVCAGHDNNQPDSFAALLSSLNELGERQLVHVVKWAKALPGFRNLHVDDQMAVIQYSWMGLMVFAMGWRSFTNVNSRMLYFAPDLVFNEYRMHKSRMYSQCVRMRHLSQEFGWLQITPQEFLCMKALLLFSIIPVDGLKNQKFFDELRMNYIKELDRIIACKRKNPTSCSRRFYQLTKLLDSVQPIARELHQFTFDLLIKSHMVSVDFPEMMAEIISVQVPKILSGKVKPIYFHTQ

Nc1cc(N2CCCCC2)nc(N)[n+]1[O-] [MINOXIDIL]
Not Active: IC50 [1] | Ki [1] | IC50 (Histamine H2 receptor) | IC50 [2] | IC50 [3] | IC50 (Androgen receptor)

CO[C@H]1/C=C/O[C@@]2(C)Oc3c(C)c(O)c4c(O)c(c(/C=N/N5CCN(C6CCCC6)CC5)c(O)c4c3C2=O)NC(=O)/C(C)=C\C=C\[C@H](C)[C@H](O)[C@@H](C)[C@@H](O)[C@@H](C)[C@H](OC(C)=O)[C@@H]1C [RIFAPENTINE]
Not Active: IC50 [1] | Ki [1] | IC50 (Histamine H2 receptor) | IC50 [2] | IC50 [3]

CCCCOc1cc(CC2CNC(=O)N2)ccc1OC (stereo not given) [RO-201724]
Not Active: IC50 [1] | Ki [1] | IC50 (Histamine H2 receptor) | IC50 [2] | IC50 [3] | IC50 (Androgen receptor)

CC[C@@H](C(=O)[C@@H](C)[C@@H](O)[C@H](C)[C@@H]1O[C@@H]([C@@H](CC)C(=O)O)CC[C@@H]1C)[C@H]1O[C@]2(C=C[C@@H](O)[C@]3(CC[C@@](C)([C@H]4CC[C@](O)(CC)[C@H](C)O4)O3)O2)[C@H](C)C[C@@H]1C [SALINOMYCIN]
Not Active: IC50 [1] | Ki [1] | IC50 (Histamine H2 receptor) | IC50 [2] | IC50 [3]

O=C(Oc1ccccc1C(=O)O)c1ccccc1O [SALSALATE]
Not Active: IC50 [1] | Ki [1] | IC50 (Histamine H2 receptor) | IC50 [2] | IC50 [3]

O=C(O)c1cn(-c2ccc(F)cc2)c2cc(N3CCNCC3)c(F)cc2c1=O [SARAFLOXACIN]
Not Active: IC50 [1] | Ki [1] | IC50 (Histamine H2 receptor) | IC50 [2] | IC50 [3]

CC(C)NCC(O)c1ccc(NS(C)(=O)=O)cc1 (stereo not given) [SOTALOL]
Not Active: IC50 [1] | Ki [1] | IC50 (Histamine H2 receptor) | IC50 [2] | IC50 [3]

O.O.O.O.O.O.[Cl-].[Cl-].[Sr+2] [STRONTIUM CHLORIDE HEXAHYDRATE]
Not Active: IC50 [1] | Ki [1] | IC50 (Histamine H2 receptor) | IC50 [2] | IC50 [3]

O=C1C(CC[S+]([O-])c2ccccc2)C(=O)N(c2ccccc2)N1c1ccccc1 (stereo not given) [SULFINPYRAZONE]
Not Active: IC50 [1] | Ki [1] | IC50 (Histamine H2 receptor) | IC50 [2] | IC50 [3]

COc1cc2nc(N3CCN(C(=O)C4CCCO4)CC3)nc(N)c2cc1OC (stereo not given) [TERAZOSIN]
Not Active: IC50 [1] | Ki [1] | IC50 (Histamine H2 receptor) | IC50 [2] | IC50 [3]

CCCCNc1ccc(C(=O)OCCN(C)C)cc1 [TETRACAINE]
Not Active: IC50 [1] | Ki [1] | IC50 (Histamine H2 receptor) | IC50 [2] | IC50 [3]

Cn1c(=O)c2nc[nH]c2n(C)c1=O.O [THEOPHYLLINE]
Not Active: IC50 [1] | Ki [1] | IC50 (Histamine H2 receptor) | IC50 [2] | IC50 [3]

CS(=O)(=O)c1ccc([C@@H](O)[C@@H](CO)NC(=O)C(Cl)Cl)cc1 [THIAMPHENICOL]
Not Active: IC50 [1] | Ki [1] | IC50 (Histamine H2 receptor) | IC50 [2] | IC50 [3]

CCN(CC)CCNC(=O)c1cc(S(C)(=O)=O)ccc1OC [TIAPRIDE]
Not Active: IC50 [1] | Ki [1] | IC50 (Histamine H2 receptor) | IC50 [2] | IC50 [3]

Clc1ccccc1CN1CCc2sccc2C1 [TICLOPIDINE]
Not Active: IC50 [1] | Ki [1] | IC50 (Histamine H2 receptor) | IC50 [2] | IC50 [3] | IC50 (Androgen receptor)

NC1CCN(c2nc3c(cc2F)c(=O)c(C(=O)O)cn3-c2ccc(F)cc2F)C1 (stereo not given) [TOSUFLOXACIN]
Not Active: IC50 [1] | Ki [1] | IC50 (Histamine H2 receptor) | IC50 [2] | IC50 [3] | IC50 (Androgen receptor)

CC(c1cc2ccccc2s1)N(O)C(N)=O (stereo not given) [ZILEUTON]
Not Active: IC50 [1] | Ki [1] | IC50 (Histamine H2 receptor) | IC50 [2] | IC50 [3] | IC50 (Androgen receptor)

MANGANESE CHLORIDE ANHYDROUS
Not Active: IC50 [1] | Ki [1] | IC50 (Histamine H2 receptor) | Ki (Histamine H2 receptor) | IC50 [2] | Ki [2] | IC50 [3] | Ki [3] | IC50 (Androgen receptor) | Ki (Androgen receptor)

SODIUM ORTHOVANAD
Not Active: IC50 [1] | Ki [1] | IC50 (Histamine H2 receptor) | Ki (Histamine H2 receptor) | IC50 [2] | Ki [2] | IC50 [3] | Ki [3] | IC50 (Androgen receptor) | Ki (Androgen receptor)
